According to patent publication US9388164B2, “Methods of using pyruvate kinase activators” (AGIOS PHARMACEUTICALS, INC, priority 2011, dated 2016):

Key:
Type in all cases: biochemical
PKR T384W = PKR T384W (Homo sapiens, UniProt P30613); experiment: PKR Mutant Assay, AC50 (T384W)
Experimental: (§1) • PKR or PKR mutant enzyme solution was diluted in assay buffer. • 2 μL of test compound was added into wells first, and then 180 μL reaction mix was added. • Reactions mixture with test compound was assembled except for ADP, and plates were stored for 60 minutes at room temperature. • 20 uL ADP was added to start reaction at room temperature and reaction progress was measured as changes in absorbance at 340 nm wavelength at room temperature.
(§2) Test Compound Preparation: • Test compound stock was made at 100× concentration in 100% DMSO (10 mM) • 1 to 3 dilutions were made for 11 points (i.e. 50 μl of first concentration added to 100 μl 100% DMSO to yield 3.33 mM, 50 μl of this added to 100 μl DMSO to yield 1.11 mM, and so forth) • 1 to 100 dilution into assay (2 μl in 200 μl) yielded starting concentration of 100 μM, decreasing 3 fold for 11 points.

PKR R510Q = PKR R510Q (Homo sapiens, UniProt P30613, R510Q); experiment: PKR Mutant Assay, AC50 (R510Q)
Sequence of PKR R510Q (P30613 whole entry R510Q): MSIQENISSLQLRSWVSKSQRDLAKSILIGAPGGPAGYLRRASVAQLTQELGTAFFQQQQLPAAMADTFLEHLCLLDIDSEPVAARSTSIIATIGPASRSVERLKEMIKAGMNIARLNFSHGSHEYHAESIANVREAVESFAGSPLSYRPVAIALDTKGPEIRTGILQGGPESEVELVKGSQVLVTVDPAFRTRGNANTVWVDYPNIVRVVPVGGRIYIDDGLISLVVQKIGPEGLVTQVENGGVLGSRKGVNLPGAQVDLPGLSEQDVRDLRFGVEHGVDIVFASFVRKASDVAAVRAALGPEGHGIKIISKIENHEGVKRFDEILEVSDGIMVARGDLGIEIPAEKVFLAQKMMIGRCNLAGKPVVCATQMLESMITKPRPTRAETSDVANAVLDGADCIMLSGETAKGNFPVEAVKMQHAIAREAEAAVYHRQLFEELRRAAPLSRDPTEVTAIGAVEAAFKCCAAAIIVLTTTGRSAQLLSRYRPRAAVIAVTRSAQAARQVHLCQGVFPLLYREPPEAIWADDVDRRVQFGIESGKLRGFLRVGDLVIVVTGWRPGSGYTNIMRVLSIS
Experimental: as §1, §2

PKR G364D = PKR G364D (Homo sapiens, UniProt P30613, G364D); experiment: PKR Mutant Assay, AC50 (G364D)
Sequence of PKR G364D (P30613 whole entry G364D): as the sequence (P30613 whole entry R510Q) above, with G364D, Q510R counted along it
Experimental: as §1, §2

PKR R532W = PKR R532W (Homo sapiens, UniProt P30613, R532W); experiment: PKR Mutant Assay, AC50 (R532W)
Sequence of PKR R532W (P30613 whole entry R532W): as the sequence (P30613 whole entry R510Q) above, with Q510R, R532W counted along it
Experimental: as §1, §2

PKR R479H = PKR R479H (Homo sapiens, UniProt P30613, R479H); experiment: PKR Mutant Assay, AC50 (R479H)
Sequence of PKR R479H (P30613 whole entry R479H): as the sequence (P30613 whole entry R510Q) above, with R479H, Q510R counted along it
Experimental: as §1, §2

Sequence of PKR T384W (P30613 whole entry T384M): as the sequence (P30613 whole entry R510Q) above, with T384M, Q510R counted along it

AC50 (PKR T384W): 101 to 500 nM
AC50 (PKR R510Q): > 500 nM
AC50 (PKR G364D): > 500 nM
AC50 (PKR R532W): 101 to 500 nM
AC50 (PKR R479H): > 500 nM
Compound: O=C(c1ccc(NS(=O)(=O)c2cccc3cccnc23)cc1)N1CC(O)(c2ccccc2)C1 [drawing 106]
